# Assays:
# [1] = test system: creatine kinase from serum; experiment: Creatine kinase (CK) activity from serum, coupled HK/G-6-PD reaction at 340 nm; type: biochemical, human; settings: FIG. 3
# From the text: Each value represent the average of five independent readings.
# All the CK activities were corrected by allowing for the AK activity.
# The same samples were used both for AMP and the fluoride. The ordinates report the percentage relative to the inhibition of the creatine kinase and the abscissae indicate the concentrations of AMP, or fluoride, in millimols per liter, in FIG. 3.
# [2] = target: T1, erythrocyte AK (Homo sapiens, UniProt P00568); experiment: CK determination in normal sera without and with added erythrocyte AK; type: biochemical; settings: AMP only at 5 millimols per liter
# T1 construct: the haemolysate from human erythrocytes; from tissue; host or cells: human erythrocytes (haemolysate)
# T1 sequence (P00568 1-194): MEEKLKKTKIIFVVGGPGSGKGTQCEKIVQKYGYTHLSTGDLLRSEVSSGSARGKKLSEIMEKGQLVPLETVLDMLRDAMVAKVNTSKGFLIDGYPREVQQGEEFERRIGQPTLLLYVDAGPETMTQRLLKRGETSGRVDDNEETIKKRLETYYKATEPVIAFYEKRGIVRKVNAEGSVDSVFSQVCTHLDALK
# From the text: Such samples have been analyzed with the method described herein and with that which uses AMP at 5 millimols per liter.
# [3] = test system: adenylate kinase; settings: erythrocyte AK; agent used alone (AMP without fluoride, fluoride without AMP); FIG. 1, 2
# Method: Normal and abnormal sera (from myocardial infarct) and the haemolysate from human erythrocytes were used as sources of CK and of AK.
# The AK activity was determined according to the method by Szasz et al. (Clin. Chem., 22, 1806, (1976)). […] A spectrophotometer, Beckman-25 with basin-supporting cradle and thermostat, was used. The reaction temperature for determining both AK and CK was 37° C.
# [4] = test system: CK; settings: AMP at 5 to 10 times the ADP concentration; cited from earlier work
SMILES,inhibition of CK activity ([1]; AMP at 20 millimols per liter),excess of CK values of samples with erythrocyte AK over normal samples [2],difference in CK activity between normal samples and samples with added erythrocyte AK ([2]; P less than 0.01),concentration at which 95% of inhibition of AK is attained [3],inhibition of the activity of the CK [4],inhibition of CK activity ([1]; fluoride at 25 millimols per liter) [%]
"Nc1ncnc2c1ncn2[C@@H]1O[C@H](COP(=O)(O)O)[C@@H](O)[C@H]1O [AMP, adenosine-5'-monophosphate]",more than 10%,about 50%,most significant difference,more than 20 millimols per liter,slightly inhibits,–
"[F-].[K+] [fluoride, potassium fluoride]",–,–,–,25 millimols per liter,–,≥ 4

# Source: US4220714A, “Composition for inhibiting adenylate-kinase and its use” (priority 1977, dated 1980)
